# Data from patent publication US20160058722A1, “METHOD FOR IMPROVING THE OXYGEN-RELEASING ABILITY OF HEMOGLOBIN TO ORGANS AND PERIPHERAL TISSUES IN HUMAN BODIES” (NATIONAL SUN YAT-SEN UNIVERSITY, priority 2014, published 2016).
# Molecular target: hemoglobin (Homo sapiens, UniProt P68871+P69905)
# Assay: resonance Raman spectroscopy of oxygenated hemoglobin, percentage of "R" state
# Format: biochemical
# Conditions: varying mole ratio to hemoglobin tetramer, 532 nm excitation, oxygen atmosphere
# Excerpt: In order to evaluate the effect of ferulic acid on stabilizing the oxygenated hemoglobin in the low oxygen affinity “T” state, compounds including 2,3-BPG (group A0) and ferulic acid (group A1) are mixed with hemoglobin as a function of their mole ratio to hemoglobin, followed by the resonance Raman spectroscopy measurements at 532 nm excitation wavelength under the oxygen atmosphere. The percentages of the high oxygen affinity “R” state for hemoglobin treated with 2,3-BPG (shown in FIG. 2a, as reference) and ferulic acid (shown in FIG. 2b) are analyzed from the resonance Raman spectroscopy measurements. In more specific, the percentage of high oxygen affinity “R” state for each treated hemoglobin was obtained by fitting a simulated spectrum comprised of adjustable weighing factors of the T and R states of pure hemoglobin to the obtained resonance Raman spectrum of treated hemoglobin.
# hemoglobin, sequence (P69905 2-142): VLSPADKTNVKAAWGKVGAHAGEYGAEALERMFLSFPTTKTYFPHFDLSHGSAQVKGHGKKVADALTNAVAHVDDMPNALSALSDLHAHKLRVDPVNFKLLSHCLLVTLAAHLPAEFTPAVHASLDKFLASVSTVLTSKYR
# hemoglobin, sequence (P68871 2-147): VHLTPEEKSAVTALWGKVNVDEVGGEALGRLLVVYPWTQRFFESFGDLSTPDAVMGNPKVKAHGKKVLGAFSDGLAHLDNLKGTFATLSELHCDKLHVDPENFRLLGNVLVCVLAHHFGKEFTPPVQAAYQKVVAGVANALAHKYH
row,"""R"" state suppression efficiency",SMILES
1,about 20%,"O=C(O)C(COP(=O)(O)O)OP(=O)(O)O (centres unmarked) [2,3-BPG, 2,3-bisphosphoglycerate]"
2,higher than 50%,COc1cc(/C=C/C(=O)O)ccc1O [ferulic acid]
